Assays:
PI3Kγ (p120γ) = molecular target: T1, PI3Kγ (p120γ) (Homo sapiens, UniProt P48736); assay: Inhibition of PI3K kinase activity (ADP Glo), PI3Kγ; details: Table 1, p120γ, read-out: biochemical potency (PI3Kγ IC50)
T1 construct: purchased Promega V1761
Procedure: Compounds were evaluated to determine the potency with which they inhibited the kinase activity of the Class I PI3K subunits p110α/p85α (Promega, Cat #V1721), p110β/p85α (Promega, Cat #V1751), p120γ (Promega, Cat #V1761) and p110δ/p85α (Promega, Cat #V1771). Activity was determined as a function of ADP (adenosine diphosphate) generated from ATP consumed during the phosphorylation of Phosphatidylinositol 4,5-bisphosphate (PIP2) (Promega, Cat #V1701) to yield Phosphatidylinositol (3,4,5)-trisphosphate (PIP3). ADP levels in the assay mixture at the end of the reaction were quantitated using ADP Glo (Promega, Cat #V9103) according to the manufacturer's recommended protocol.
Enzyme was prepared for each of the PI3K subunits in 100 mM HEPES, pH 7.4, 100 mM NaCl, 6 mM MgCl2 and 0.05% BSA. p110α/p85α was prepared at 2 nM (2×), p110β/p85α was prepared at 7 nM (2×), p120γ was prepared at 8 nM (2×) and p110δ/p85α was prepared at 2 nM (2×). Five microliters of 2× enzyme dilution of each PI3K subunit were added to a 384-well white Opti-plates pre-dispensed with compound and allowed to incubate for 1 h at rt. A substrate mix containing 0.1 mg/ml (2×) of PIP2 and 50 μM (2×) ATP (Promega, Cat #V915) was prepared in 25 mM HEPES and 0.5 mM EGTA. Reactions were initiated by addition of 5 μl of 2× substrate mix to each well of the plates containing various PI3K isoforms and allowed to proceed for 60 min at rt. Ten microliters of ADP Glo reagent 1 were added to the wells of each plate and allowed to incubate at rt for 45 min according to the manufacturer's directions. Following incubation, 20 μl of ADP Glo reagent 2 was added to each plate and allowed to incubate for an additional 45 min. Luminescent signal, generated by ADP Glo, was quantified by reading on a Perkin Elmer Envision multimode reader. Compound potencies (IC50's) were determined using a standard 4-parameter fit non-linear regression fit.

PI3Kγ = molecular target: T2, PI3Kγ (Homo sapiens, UniProt P48736); assay: PI3Kγ cellular assay in THP-1 cells (AKT pS473 AlphaLISA); format: cell-based; details: Table 1, rhMCP-1 stimulated AKT pS473, read-out: cellular potency (PI3Kγ IC50)
T2 construct: host or cells: THP-1
T2 sequence (P48736 whole entry): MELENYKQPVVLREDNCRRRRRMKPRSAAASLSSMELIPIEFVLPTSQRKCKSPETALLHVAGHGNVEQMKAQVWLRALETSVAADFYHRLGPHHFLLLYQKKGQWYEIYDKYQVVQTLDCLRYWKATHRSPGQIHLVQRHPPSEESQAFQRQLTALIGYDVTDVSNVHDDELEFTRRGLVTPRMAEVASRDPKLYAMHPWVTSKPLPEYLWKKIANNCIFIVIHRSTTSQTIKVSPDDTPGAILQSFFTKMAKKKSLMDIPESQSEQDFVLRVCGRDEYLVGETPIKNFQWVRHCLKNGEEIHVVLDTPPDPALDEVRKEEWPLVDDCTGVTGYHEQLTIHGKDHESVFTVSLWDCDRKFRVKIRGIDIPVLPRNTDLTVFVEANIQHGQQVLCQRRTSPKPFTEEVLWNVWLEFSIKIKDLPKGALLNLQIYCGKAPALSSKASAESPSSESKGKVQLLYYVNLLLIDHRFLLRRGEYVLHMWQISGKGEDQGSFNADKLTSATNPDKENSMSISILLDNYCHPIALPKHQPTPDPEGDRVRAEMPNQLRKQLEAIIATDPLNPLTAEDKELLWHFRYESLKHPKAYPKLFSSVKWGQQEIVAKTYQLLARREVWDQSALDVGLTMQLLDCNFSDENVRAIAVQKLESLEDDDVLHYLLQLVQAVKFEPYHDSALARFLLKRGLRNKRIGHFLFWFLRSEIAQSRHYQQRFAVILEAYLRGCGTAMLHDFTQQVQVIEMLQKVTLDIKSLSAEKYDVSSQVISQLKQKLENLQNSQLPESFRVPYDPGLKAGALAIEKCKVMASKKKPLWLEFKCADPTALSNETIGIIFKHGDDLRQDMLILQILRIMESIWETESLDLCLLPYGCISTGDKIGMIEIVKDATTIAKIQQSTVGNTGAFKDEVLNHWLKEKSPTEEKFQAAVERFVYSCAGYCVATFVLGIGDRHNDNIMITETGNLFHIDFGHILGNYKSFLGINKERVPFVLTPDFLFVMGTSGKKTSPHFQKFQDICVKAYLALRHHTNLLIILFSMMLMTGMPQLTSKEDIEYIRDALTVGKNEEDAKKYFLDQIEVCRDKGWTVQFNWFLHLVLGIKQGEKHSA
Procedure: Twenty microliters of serum starved THP-1 cells were added to the compound plate in serum free DMEM at a density of 9×10^6 cells per ml. Final assay conditions comprised 1.8×10^5 THP-1 cells per well with test compounds in 2% DMSO across a concentration range from 4 nM to 30 μM. […] Briefly, 10 μL of 4× lysis buffer was added to cells after stimulation. Following 60 min incubation at rt, 10 μL of cell lysate was transferred to a fresh 384-well Opti-plate to which 5 μL of AlphaLisa acceptor beads and 5 μL of AlphaLisa donor beads had been added. […] PI3Kγ activity was evaluated as a correlate of endogenous AKT phosphorylation levels. Percentage maximum activity in each test well was calculated based on DMSO (100% activity) and positive control treated cell wells (0% activity). The potencies (IC50's) of test compounds were determined using a standard 4-parameter fit non-linear regression fit.

T1 sequence (P48736 whole entry): as above

Row | SMILES | IC50 (PI3Kγ (p120γ)) [nM] | IC50 (PI3Kγ) [nM]
1 | C[C@@H](C1CC1)N1Cc2cc(-c3ccn4nc(N)c(C(=O)N[C@H]5CC[C@H](C6(O)CC6)CC5)c4n3)cc(OC(F)(F)F)c2C1=O [Example 30, 2-Amino-5-(2-((S)-1-cyclopropylethyl)-1-oxo-7-(trifluoromethoxy)isoindolin-5-yl)-N-(trans-4-(1-hydroxycyclopropyl)cyclohexyl)pyrazolo[1,5-a]pyrimidine-3-carboxamide] | < 100 | < 100
2 | C[C@@H](C1CC1)N1Cc2cc(-c3ccn4nc(N)c(C(=O)N[C@@H]5CCC[C@H](N)C5)c4n3)cc(OC(F)(F)F)c2C1=O [Example 33, 2-Amino-N-[(1R,3S)-3-aminocyclohexyl]-5-{2-[(1S)-1-cyclopropylethyl]-1-oxo-7-(trifluoromethoxy)-2,3-dihydro-1H-isoindol-5-yl}pyrazolo[1,5-a]pyrimidine-3-carboxamide] | < 100 | < 100
3 | C[C@@H](C1CC1)N1Cc2cc(-c3ccn4nc(N)c(C(=O)N[C@@H]5CCC[C@H]5O)c4n3)cc(OC(F)(F)F)c2C1=O [Example 35, 2-Amino-5-{2-[(1S)-1-cyclopropylethyl]-1-oxo-7-(trifluoromethoxy)-2,3-dihydro-1H-isoindol-5-yl}-N-[(1R,2R)-2-hydroxycyclopentyl]pyrazolo[1,5-a]pyrimidine-3-carboxamide] | < 100 | < 100
4 | C[C@@H](C1CC1)N1Cc2cc(-c3ccn4nc(N)c(C(=O)N[C@H]5CC[C@H](O)C5)c4n3)cc(OC(F)(F)F)c2C1=O [Example 36, 2-Amino-5-{2-[(1S)-1-cyclopropylethyl]-1-oxo-7-(trifluoromethoxy)-2,3-dihydro-1H-isoindol-5-yl}-N-[(1S,3S)-3-hydroxycyclopentyl]pyrazolo[1,5-a]pyrimidine-3-carboxamide] | < 100 | < 100
5 | C[C@@H](C1CC1)N1Cc2cc(-c3ccn4nc(N)c(C(=O)N[C@@H]5COC[C@H]5O)c4n3)cc(OC(F)(F)F)c2C1=O [Example 38, 2-Amino-5-{2-[(1S)-1-cyclopropylethyl]-1-oxo-7-(trifluoromethoxy)-2,3-dihydro-1H-isoindol-5-yl}-N-[(3R,4S)-4-hydroxyoxolan-3-yl]pyrazolo[1,5-a]pyrimidine-3-carboxamide] | < 100 | < 100
6 | Cc1ncccc1NC(=O)c1c(N)nn2ccc(-c3cc4c(c(OC(F)(F)F)c3)C(=O)N([C@@H](C)C3CC3)C4)nc12 [Example 44, 2-[(S)-1-Cyclopropylethyl]-5-{2-amino-3-[(2-methyl-3-pyridylamino)carbonyl]-1,4,7a-triaza-5-indenyl}-7-trifluoromethoxy-1-isoindolinone] | < 100 | < 100
7 | Cc1ccc(NC(=O)c2c(N)nn3ccc(-c4cc5c(c(OC(F)(F)F)c4)C(=O)N([C@@H](C)C4CC4)C5)nc23)cn1 [Example 45, 2-[(S)-1-Cyclopropylethyl]-5-{2-amino-3-[(6-methyl-3-pyridylamino)carbonyl]-1,4,7a-triaza-5-indenyl}-7-trifluoromethoxy-1-isoindolinone] | < 100 | < 100
8 | C[C@@H](C1CC1)N1Cc2cc(-c3ccn4nc(N)c(C(=O)Nc5ccc(N)nc5)c4n3)cc(OC(F)(F)F)c2C1=O [Example 46, 2-[(S)-1-Cyclopropylethyl]-5-{2-amino-3-[(6-amino-3-pyridylamino)carbonyl]-1,4,7a-triaza-5-indenyl}-7-trifluoromethoxy-1-isoindolinone] | < 100 | < 100

More lines, now with the values ahead:

Row | IC50 (PI3Kγ (p120γ)) [nM] | IC50 (PI3Kγ) [nM] | SMILES
9 | < 100 | < 100 | C[C@@H](C1CC1)N1Cc2cc(-c3ccn4nc(N)c(C(=O)N[C@H]5CC[C@H](N)CC5)c4n3)cc(OC(F)(F)F)c2C1=O [Example 31, 2-Amino-5-{2-[(1S)-1-cyclopropylethyl]-1-oxo-7-(trifluoromethoxy)-2,3-dihydro-1H-isoindol-5-yl}-N-[trans-4-aminocyclohexyl]pyrazolo[1,5-a]pyrimidine-3-carboxamide]
10 | < 100 | < 100 | C[C@@H](C1CC1)N1Cc2cc(-c3ccn4nc(N)c(C(=O)N[C@H]5CCNC5=O)c4n3)cc(OC(F)(F)F)c2C1=O [Example 32, 2-Amino-5-{2-[(1S)-1-cyclopropylethyl]-1-oxo-7-(trifluoromethoxy)-2,3-dihydro-1H-isoindol-5-yl}-N-[(3S)-2-oxopyrrolidin-3-yl]pyrazolo[1,5-a]pyrimidine-3-carboxamide]
11 | < 100 | < 100 | C[C@@H](C1CC1)N1Cc2cc(-c3ccn4nc(N)c(C(=O)N[C@@H]5CCC[C@H](N(C)C)C5)c4n3)cc(OC(F)(F)F)c2C1=O [Example 34, 2-Amino-5-{2-[(1S)-1-cyclopropylethyl]-1-oxo-7-(trifluoromethoxy)-2,3-dihydro-1H-isoindol-5-yl}-N-[(1R,3S)-3-(dimethylamino)cyclohexyl]pyrazolo[1,5-a]pyrimidine-3-carboxamide]
12 | < 100 | < 100 | C[C@@H](C1CC1)N1Cc2cc(-c3ccn4nc(N)c(C(=O)N[C@@H]5CC[C@@H](O)C5)c4n3)cc(OC(F)(F)F)c2C1=O [Example 37, 2-Amino-5-{2-[(1S)-1-cyclopropylethyl]-1-oxo-7-(trifluoromethoxy)-2,3-dihydro-1H-isoindol-5-yl}-N-[(1R,3R)-3-hydroxycyclopentyl]pyrazolo[1,5-a]pyrimidine-3-carboxamide]
13 | < 100 | < 100 | C[C@@H](C1CC1)N1Cc2cc(-c3ccn4nc(N)c(C(N)=O)c4n3)cc(OC(F)(F)F)c2C1=O [Example 39, 5-{2-[(S)-1-Cyclopropylethyl]-7-trifluoromethoxy-5-isoindolinoyl}-2-amino-1,4,7a-triaza-3-indenecarboxamide]
14 | < 100 | < 100 | C[C@@H](C1CC1)N1Cc2cc(-c3ccn4nc(N)c(C(=O)Nc5ccncc5)c4n3)cc(OC(F)(F)F)c2C1=O [Example 40, (S)-2-Amino-5-(2-(1-cyclopropylethyl)-1-oxo-7-(trifluoromethoxy)isoindolin-5-yl)-N-(pyridin-4-yl)pyrazolo[1,5-a]pyrimidine-3-carboxamide]
15 | < 100 | < 100 | C[C@@H](C1CC1)N1Cc2cc(-c3ccn4nc(N)c(C(=O)Nc5cccnc5)c4n3)cc(OC(F)(F)F)c2C1=O [Example 41, (S)-2-Amino-5-(2-(1-cyclopropylethyl)-1-oxo-7-(trifluoromethoxy)isoindolin-5-yl)-N-(pyridin-3-yl)pyrazolo[1,5-a]pyrimidine-3-carboxamide]
16 | < 100 | < 100 | C[C@@H](C1CC1)N1Cc2cc(-c3ccn4nc(N)c(C(=O)Nc5cncc(F)c5)c4n3)cc(OC(F)(F)F)c2C1=O [Example 42, 2-Amino-5-{2-[(1S)-1-cyclopropylethyl]-1-oxo-7-(trifluoromethoxy)-2,3-dihydro-1H-isoindol-5-yl}-N-(5-fluoropyridin-3-yl)pyrazolo[1,5-a]pyrimidine-3-carboxamide]
17 | < 100 | < 100 | COc1cncc(NC(=O)c2c(N)nn3ccc(-c4cc5c(c(OC(F)(F)F)c4)C(=O)N([C@@H](C)C4CC4)C5)nc23)c1 [Example 43, 2-Amino-5-{2-[(1S)-1-cyclopropylethyl]-1-oxo-7-(trifluoromethoxy)-2,3-dihydro-1H-isoindol-5-yl}-N-(5-methoxypyridin-3-yl)pyrazolo[1,5-a]pyrimidine-3-carboxamide]
18 | < 100 | < 100 | Cc1ccncc1NC(=O)c1c(N)nn2ccc(-c3cc4c(c(OC(F)(F)F)c3)C(=O)N([C@@H](C)C3CC3)C4)nc12 [Example 47, (S)-2-Amino-5-(2-(1-cyclopropylethyl)-1-oxo-7-(trifluoromethoxy)isoindolin-5-yl)-N-(4-methylpyridin-3-yl)pyrazolo[1,5-a]pyrimidine-3-carboxamide]

— patent US20230024302A1, “2,3,5-TRISUBSTITUTED PYRAZOLO[1,5-A]PYRIMIDINE COMPOUNDS” (Arcus Biosciences, Inc., priority 2019, published 2023)
